According to patent US11040028B2, “Penicinotam derivative, preparation method and use thereof” (OCEAN UNIVERSITY OF CHINA, priority 2017, dated 2021):

Assays:
Type in all cases: cell-based
[1] = tested on: cardiac fibroblast RAT-iCell-C002; test: Anti-fibrosis activity test: inhibition of proliferation of cardiac fibroblast RAT-iCell-C002 (CCK-8); settings: Cardiac fibroblast, 48 h, cardiac fibroblast RAT-iCell-C002, CCK-8, 48 hours
Method in brief: (§1)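 After one day of adherence at 37° C in 5% CO2, cells (seeded at 2×10^4 cells/mL) received the compounds for two days in triplicate. Inhibition of proliferation was quantified with CCK-8 at 450 nm, with IC50 calculated from IR = (1−Ai/Ao)×100%.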

BHK-21 cells = test: Anti-fibrosis activity test: inhibition of BHK-21 cell proliferation (CCK-8); settings: Mesocricetus auratus, BHK-21, 48 h, CCK-8, 48 hours after administration
Method in brief: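 Cells plated 2×10^4 cells/mL; 24 h attach; compound dilutions, triplicate, 48 h, 37° C/5% CO2; CCK-8 2 h; A450; IR = (1−Ai/Ao)×100%; IC50 by curve fit.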

NF-κB = test: Immunological activity test: inhibition of NF-κB activity; settings: initial concentration of 30 μM; a/b isomers given as first/second symbol; read-out: IC50 (μM), inhibitory activity against NF-κB
Method in brief: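 IC50 values were derived after initial screening of compounds at 30 μM for NF-κB inhibitory activity, with parthenolide serving as the positive control.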

[2] = tested on: human lung fibroblasts HFL1; test: Anti-fibrosis activity test: inhibition of proliferation of human lung fibroblasts HFL1 (CCK-8); settings: Homo sapiens, HFL1, 48 h, human lung fibroblasts HFL1, CCK-8, 48 hours
Method in brief: as §1

[3] = tested on: human embryonic lung fibroblast IMR-90; test: Anti-fibrosis activity test: inhibition of proliferation of human embryonic lung fibroblast IMR-90 (CCK-8); settings: human embryonic lung fibroblast IMR-90, CCK-8, 48 hours
Method in brief: as §1

[4] = tested on: human dermal fibroblasts CCC-ESF-1; test: Anti-fibrosis activity test: inhibition of proliferation of human dermal fibroblasts CCC-ESF-1 (CCK-8); settings: Fibroblast; human dermal fibroblasts CCC-ESF-1, CCK-8, 48 hours
Method in brief: as §1

[5] = tested on: mouse macrophages (RAW264.7); test: Lipopolysaccharide-induced NO secretion in macrophages (Griess); settings: Mus musculus, RAW264.7, 24 h, RAW264.7, LPS 1 μg/ml, a/b isomers given as first/second symbol, read-out: IC50 (μM), inhibition of lipopolysaccharide-induced NO secretion in macrophages
Method in brief: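 LPS 1 μg/ml, 24 h, RAW264.7 (DMEM/10% FBS); cpds at varied concs. Supernatant NO by Griess, A548; % inhibition vs blank medium.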

[6] = tested on: human hepatic stellate cells LX-2; test: Anti-fibrosis activity test: inhibition of proliferation of human hepatic stellate cells LX-2 (CCK-8); settings: Homo sapiens, 48 h, human hepatic stellate cells LX-2, CCK-8, 48 hours
Method in brief: as §1

[7] = tested on: human fibrosarcoma cells HT-1080; test: Anti-fibrosis activity test: inhibition of proliferation of human fibrosarcoma cells HT-1080 (CCK-8); settings: Homo sapiens, HT-1080, 48 h, human fibrosarcoma cells HT-1080, CCK-8, 48 hours
Method in brief: as §1

Compound | IC50 [1] | IC50 (BHK-21 cells) | IC50 (NF-κB) | IC50 [2] | IC50 [3] | IC50 [4] | IC50 [5] | IC50 [6] | IC50 [7]
O=C1c2c(n(Cc3c(Cl)cccc3Cl)c3ccccc3c2=O)-c2cccn21 [Compound 614a, 4-(2,6-Dichlorobenzyl)-9H-pyrrolizino[1,2-b]quinoline-9,10(4H)-dione] | 0.05 to 5 mM | 0.05 to 5 mM | 1 to 10 µM | 0.05 to 5 mM | 0.05 to 5 mM | 0.05 to 5 mM | 10 to 50 µM | 0.05 to 5 mM | < 0.05 mM
CCOC(=O)COc1c2c(nc3ccccc13)-c1cccn1C2=O [Compound 654b, ethyl 2-((10-oxo-10H-pyrrolizino[1,2-b]quinolin-9-yl)oxy)acetate] | 0.05 to 5 mM | 0.05 to 5 mM | 1 to 10 µM | 0.05 to 5 mM | 0.05 to 5 mM | < 0.05 mM | 1 to 10 µM | 0.05 to 5 mM | 0.05 to 5 mM
O=C1c2c(nc3ccccc3c2OCc2ccc([N+](=O)[O-])cc2)-c2cccn21 [Compound 593b, 9-((4-nitrobenzyl)oxy)-10H-pyrrolizino[1,2-b]quinolin-10-one] | 0.05 to 5 mM | 0.05 to 5 mM | 1 to 10 µM | 0.05 to 5 mM | 0.05 to 5 mM | 0.05 to 5 mM | 1 to 10 µM | 0.05 to 5 mM | 0.05 to 5 mM
O=C1c2c(n(Cc3ccc(-c4ccccc4)cc3)c3ccccc3c2=O)-c2cccn21 [Compound 649a, 4-([1,1′-Biphenyl]-4-ylmethyl)-9H-pyrrolizino[1,2-b]quinoline-9,10(4H)-dione] | 0.05 to 5 mM | 0.05 to 5 mM | 0.1 to 1 µM | 0.05 to 5 mM | 0.05 to 5 mM | 0.05 to 5 mM | 10 to 50 µM | 0.05 to 5 mM | 0.05 to 5 mM
O=C1c2c(nc3cccc(Cl)c3c2O)-c2cccn21 [Compound 464b, 8-chloro-9-hydroxy-10H-pyrrolizino[1,2-b]quinolin-10-one] | 0.05 to 5 mM | 0.05 to 5 mM | 1 to 10 µM | < 0.05 mM | 0.05 to 5 mM | 0.05 to 5 mM | 1 to 10 µM | 0.05 to 5 mM | 0.05 to 5 mM
O=C1c2c(nc3ccccc3c2OCc2cc(F)ccc2F)-c2cccn21 [Compound 573b, 9-((2,5-difluorobenzyl)oxy)-10H-pyrrolizino[1,2-b]quinolin-10-one] | < 0.05 mM | 0.05 to 5 mM | 1 to 10 µM | 0.05 to 5 mM | 0.05 to 5 mM | 0.05 to 5 mM | 0.1 to 1 µM | 0.05 to 5 mM | 0.05 to 5 mM
O=C1c2c(nc3ccccc3c2OCc2cccc(I)c2)-c2cccn21 [Compound 608b, 9-((3-iodobenzyl)oxy)-10H-pyrrolizino[1,2-b]quinolin-10-one] | 0.05 to 5 mM | 0.05 to 5 mM | 1 to 10 µM | 0.05 to 5 mM | 0.05 to 5 mM | 0.05 to 5 mM | 1 to 10 µM | 0.05 to 5 mM | 0.05 to 5 mM
N#Cc1ccc(F)cc1Cn1c2c(c(=O)c3ccccc31)C(=O)n1cccc1-2 [Compound 616a, 2-((9,10-Dioxo-9H-pyrrolizino[1,2-b]quinolin-4(10H)-yl)methyl)-4-fluorobenzonitrile] | 0.05 to 5 mM | 0.05 to 5 mM | 0.1 to 1 µM | 0.05 to 5 mM | 0.05 to 5 mM | 0.05 to 5 mM | 10 to 50 µM | 0.05 to 5 mM | 0.05 to 5 mM
CC(C)(C)COc1c2c(nc3ccccc13)-c1cccn1C2=O [Compound 656b, 9-(neopentyloxy)-10H-pyrrolizino[1,2-b]quinolin-10-one] | 0.05 to 5 mM | 0.05 to 5 mM | 1 to 10 µM | 0.05 to 5 mM | 0.05 to 5 mM | 0.05 to 5 mM | 1 to 10 µM | 0.05 to 5 mM | 0.05 to 5 mM
